BindingDB's records for patent US20250313563 (The Broad Institute, 2025)
Several values for one entry are separate records, joined by “and”; a condition that tells them apart may be missing. Identical values can stand only once.

Columns and labels:
[1] = molecular target: Glycogen synthase kinase-3 alpha (Homo sapiens, UniProt P49840); experiment: TR-FRET Assay
Procedure, shortened: (§1)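 30 min preinc w/ cpd in assay buffer → kinase rxn → EDTA quench → add detection mix (40 nM SA-d2, 2 nM Tb-pSer641 Ab) → TR-FRET read.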

[2] = molecular target: Glycogen synthase kinase-3 beta (Homo sapiens, UniProt P49841); experiment: TR-FRET Assay
Procedure, shortened: as §1

Glycogen synthase kinase-3 beta, sequence (P49841 whole entry): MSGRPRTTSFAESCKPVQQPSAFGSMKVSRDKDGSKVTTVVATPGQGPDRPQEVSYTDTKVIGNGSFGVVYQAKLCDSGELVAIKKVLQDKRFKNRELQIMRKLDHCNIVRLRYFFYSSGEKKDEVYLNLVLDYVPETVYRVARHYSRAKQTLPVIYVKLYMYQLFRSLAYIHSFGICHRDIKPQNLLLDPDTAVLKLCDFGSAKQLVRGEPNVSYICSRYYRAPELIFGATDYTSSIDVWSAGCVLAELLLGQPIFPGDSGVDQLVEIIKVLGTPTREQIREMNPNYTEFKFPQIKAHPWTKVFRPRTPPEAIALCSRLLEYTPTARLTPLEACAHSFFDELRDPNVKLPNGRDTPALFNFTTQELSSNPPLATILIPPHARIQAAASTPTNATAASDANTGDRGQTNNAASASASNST
Glycogen synthase kinase-3 alpha, sequence (P49840 whole entry): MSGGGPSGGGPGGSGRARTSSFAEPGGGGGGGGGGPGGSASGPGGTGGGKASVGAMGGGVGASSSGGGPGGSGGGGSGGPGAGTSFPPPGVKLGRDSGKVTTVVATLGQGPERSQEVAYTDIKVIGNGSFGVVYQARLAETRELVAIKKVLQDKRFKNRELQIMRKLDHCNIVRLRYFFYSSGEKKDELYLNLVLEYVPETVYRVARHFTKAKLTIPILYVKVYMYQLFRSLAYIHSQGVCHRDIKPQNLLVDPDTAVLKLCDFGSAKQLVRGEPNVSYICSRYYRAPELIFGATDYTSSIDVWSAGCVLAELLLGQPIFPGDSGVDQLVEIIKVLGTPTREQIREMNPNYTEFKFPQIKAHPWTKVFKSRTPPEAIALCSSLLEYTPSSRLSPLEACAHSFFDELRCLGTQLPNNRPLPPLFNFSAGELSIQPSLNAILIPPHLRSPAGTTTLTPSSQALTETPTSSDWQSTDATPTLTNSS

Compound	IC50 [1]	IC50 [2]
Cc1nc(C)c(S(=O)(=O)N2CCC3(CC2)C2=C(N=NC2)NC2=C3C(=O)CC(C)(C)C2)s1 [US20250313563, Compound 947259]	< 100 nM	< 100 nM
COc1cccc(S(=O)(=O)N2CC3(C2)C2=C(N=NC2)NC2=C3C(=O)CC(C)(C)C2)c1 [US20250313563, Compound 918276]	< 100 nM	< 100 nM
CC1(C)CC(=O)C2=C(C1)NC1N=NC(Br)=C1[C@]21CCc2c(F)cccc21 (some centres undefined) [US20250313563, Compound 806939]	< 100 nM	< 100 nM
CC[C@]1(c2cccc(C(F)(F)F)c2)C2=CN=NC2NC2=C1C(=O)N(c1cscn1)CC2 (some centres undefined) [US20250313563, Compound 952629]	< 100 nM	100 to 1000 nM
CC[C@]1(c2cccc(C(F)(F)F)c2)C2=CN=NC2NC2=C1C(=O)N(c1cn(C)c(C)n1)CC2 (some centres undefined) [US20250313563, Compound 952478]	1000 to 5000 nM	> 5000 nM
CC[C@@]1(c2cccc(C3=CN=NC3)c2)C2=C(CC(C)(C)NC2=O)NC2N=NC(C(F)(F)F)=C21 (some centres undefined) [US20250313563, Compound 948312]	< 100 nM	100 to 1000 nM
Cc1ccc(S(=O)(=O)N2CCC3(CC2)C2=C(N=NC2)NC2=C3C(=O)CC(C)(C)C2)s1 [US20250313563, Compound 945672]	< 100 nM and 100 to 1000 nM	< 100 nM and 100 to 1000 nM
CCC1(c2cccc(-c3ccnc(C)c3)c2)C2=CN=NC2NC2=C1C(=O)NC(C)C2 (centres undefined) [US20250313563, Compound 913357]	100 to 1000 nM	1000 to 5000 nM
CC1(C)CC(=O)C2=C(C1)NC1=C(CN=N1)C21CCN(S(=O)(=O)c2cnnn2-c2ccccc2)CC1 [US20250313563, Compound 947466]	< 100 nM	100 to 1000 nM
CC1(C)CC(=O)C2=C(C1)NC1=C(CN=N1)C2(C)c1cc(Cl)ccc1Cl (centres undefined) [US20250313563, Compound 806605]	1000 to 5000 nM	> 5000 nM
CC[C@@]1(c2cccc(-c3ccnc(C)c3)c2)C2=CN=NC2NC2=C1C(=O)NC1(CCC1)C2 (some centres undefined) [US20250313563, Compound 949520]	< 100 nM	100 to 1000 nM
CCC1(c2cccc(-c3cn(C)nc3C)c2)C2=C(CC(C)(C)NC2=O)NC2N=NC(F)=C21 (centres undefined) [US20250313563, Compound 948301]	< 100 nM	< 100 nM
CCC1(c2cccc(-c3cc(C)nnc3C)c2)C2=C(CC(C)(C)NC2=O)NC2N=NC(C)=C21 (centres undefined) [US20250313563, Compound 948765]	< 100 nM	< 100 nM
CC[C@@]1(c2cccc(C(F)(F)F)c2)C2=CN=NC2NC2=C1C(=O)N(c1cn(C)nc1C)CC2 (some centres undefined) [US20250313563, Compound 949642]	100 to 1000 nM	1000 to 5000 nM
CC[C@@]1(c2cccc(-c3c(C#N)c(C)nn3C)c2)C2=CN=NC2NC2=C1C(=O)NC(C)(C)C2 (some centres undefined) [US20250313563, Compound 951844]	< 100 nM	100 to 1000 nM
CC1(C)CC(=O)C2=C(C1)NC1=C(CN=N1)[C@]21COC2(CN(C(=O)[C@@H]3CC3(F)F)C2)C1 [US20250313563, Compound 948219]	< 100 nM and 100 to 1000 nM	< 100 nM and 1000 to 5000 nM
CC[C@]1(c2cccc(-c3cnn(C)c3)c2)C2=C(N=NC2)NC2=C1C(=O)C(C)(C)C2 [US20250313563, Compound 950819]	100 to 1000 nM	1000 to 5000 nM

Compound	IC50 [1]	IC50 [2]
CC[C@@]1(c2cccc(-c3cnn4cc(F)cc(F)c34)c2)C2=CN=NC2NC2=C1C(=O)NC(C)(C)C2 (some centres undefined) [US20250313563, Compound 950565]	< 100 nM	100 to 1000 nM
CCC1(c2cccc(-c3ccncc3F)c2)C2=C(CC(C)(C)NC2=O)NC2N=NC(C(F)F)=C21 (centres undefined) [US20250313563, Compound 950320]	< 100 nM	< 100 nM
CC1(C)CC(=O)C2=C(C1)NC1N=NC(C3(C(F)(F)F)CC3)=C1C21CCc2c(F)cccc21 (centres undefined) [US20250313563, Compound 810591]	100 to 1000 nM	100 to 1000 nM
CC1(C)CC(=O)C2=C(C1)NC1=C(CN=N1)C21CCN(S(=O)(=O)c2cnc3n2CCCC3)CC1 [US20250313563, Compound 947480]	< 100 nM	< 100 nM
CC1(C)CC(=O)C2=C(C1)NC1N=NC=C1C21CCCS(=O)(=O)CC1 (centres undefined) [US20250313563, Compound 927343]	< 100 nM	100 to 1000 nM
C[C@H]1C[C@]2(CCN1S(=O)(=O)c1ccn(C)n1)C1=C(N=NC1)NC1=C2C(=O)CC(C)(C)C1 [US20250313563, Compound 926815]	< 100 nM	< 100 nM
CC1(C)CC(=O)C2=C(C1)NC1N=NC=C1C21CC2(CCOCC2)C1 (centres undefined) [US20250313563, Compound 874534]	< 100 nM and 100 to 1000 nM	< 100 nM and 100 to 1000 nM
CC[C@]1(c2cccc(-c3cn(C)nc3C)c2)C2=C(CC(C)(C)NC2=O)NC2N=NC(C(F)(F)F)=C21 (some centres undefined) [US20250313563, Compound 948309]	1000 to 5000 nM	> 5000 nM
COc1cccc(S(=O)(=O)N2CCC3(CC2)C2=C(N=NC2)NC2=C3C(=O)CC(C)(C)C2)c1 [US20250313563, Compound 901468]	< 100 nM and 100 to 1000 nM	< 100 nM and 1000 to 5000 nM
CC1(C)CC(=O)C2=C(C1)NC1=C(CN=N1)C21CCN(S(=O)(=O)c2ccc(C(F)F)cc2)CC1 [US20250313563, Compound 947248]	< 100 nM	< 100 nM
CC1(C)CC(=O)C2=C(C1)NC1=C(CN=N1)C21CCN(S(=O)(=O)c2cnn3c2OCCC3)CC1 [US20250313563, Compound 947483]	< 100 nM	< 100 nM
CCC1(c2ccccc2)C2=C(CC(C)(C)CC2=O)NC2N=NC(C(F)(F)F)=C21 (centres undefined) [US20250313563, Compound 792343]	< 100 nM	< 100 nM
CC1(C)CC(=O)C2=C(C1)NC1=C(CN=N1)[C@@]21CCOC1 [US20250313563, Compound 877314]	100 to 1000 nM	1000 to 5000 nM
CC1(C)CC(=O)C2=C(C1)NC1=C(CN=N1)[C@]21C[C@@H](c2ccncc2)C1 [US20250313563, Compound 889665]	< 100 nM	< 100 nM and 100 to 1000 nM
CC[C@@]1(c2cccc(-c3cnn(C(F)F)c3)c2)C2=CN=NC2NC2=C1C(=O)NC(C)(C)C2 (some centres undefined) [US20250313563, Compound 950254]	< 100 nM	1000 to 5000 nM
CC[C@]1(c2cccc(-c3ccnc4c3CCC4)c2)C2=C(CC(C)(C)NC2=O)NC2N=NC(C(F)(F)F)=C21 (some centres undefined) [US20250313563, Compound 948769]	100 to 1000 nM	100 to 1000 nM
CC1(C)CC(=O)C2=C(C1)NC1=C(CN=N1)C21COC2(CN(C(=O)C3(C)CCCC3)C2)C1 (centres undefined) [US20250313563, Compound 947307]	< 100 nM	< 100 nM

More lines, now with the values ahead:

IC50 [1]	IC50 [2]	Compound
1000 to 5000 nM	1000 to 5000 nM	CC[C@]1(c2cccc(NS(C)(=O)=O)c2)C2=CN=NC2NC2=C1C(=O)CC(C)(C)C2 (some centres undefined) [US20250313563, Compound 927341]
< 100 nM and 100 to 1000 nM	< 100 nM and 1000 to 5000 nM	CC[C@]1(c2cccc(N(c3cccnc3)C(C)C)c2)C2=CN=NC2NC2=C1C(=O)CC(C)(C)C2 (some centres undefined) [US20250313563, Compound 917086]
100 to 1000 nM	100 to 1000 nM	CC[C@]1(c2ccccc2)C2=CN=NC2NC2=C1C(=O)C[C@H](C)C2 (some centres undefined) [US20250313563, Compound 789010]
> 5000 nM	> 5000 nM	CC[C@@]1(c2cccc(C(F)(F)F)c2)C2=CN=NC2NC2=C1C(=O)C[C@]1(CCN(C)C1=O)C2 (some centres undefined) [US20250313563, Compound 950325]
< 100 nM	100 to 1000 nM	CC[C@@]1(c2cccc(-c3ccnn3C)c2)C2=CN=NC2NC2=C1C(=O)CC(C)(C)C2 (some centres undefined) [US20250313563, Compound 911993]
< 100 nM and 1000 to 5000 nM	1000 to 5000 nM and > 5000 nM	CC[C@]1(c2cccc(-c3cnn(C)c3)c2)C2=CN=NC2NC2=C1C(=O)CC(C)(C)[C@H]2F (some centres undefined) [US20250313563, Compound 957505]
< 100 nM	100 to 1000 nM	CC[C@]1(c2cccc(-c3ncnn3C)c2)C2=CN=NC2NC2=C1C(=O)CC(C)(C)C2 (some centres undefined) [US20250313563, Compound 945472]
< 100 nM	< 100 nM	CCC1(c2cccc(N(C)c3cnccn3)c2)C2=CN=NC2NC2=C1C(=O)CC(C)(C)C2 (centres undefined) [US20250313563, Compound 902971]
> 5000 nM	> 5000 nM	CC[C@@]1(c2ccccc2)C2=CN=NC2NC2=C1C(=O)[C@H](F)C(C)(C)C2 (some centres undefined) [US20250313563, Compound 957404]
1000 to 5000 nM	> 5000 nM	CC1(C)CC(=O)C2=C(C1)NC1N=NC=C1[C@@]21CCCc2ccccc21 (some centres undefined) [US20250313563, Compound 930565]
< 100 nM	100 to 1000 nM	CCC1(c2cccc(N3CCCC[C@H]3C)c2)C2=CN=NC2NC2=C1C(=O)CC(C)(C)C2 (some centres undefined) [US20250313563, Compound 885228]
< 100 nM	< 100 nM	CCC1(c2cccc(-c3ccncc3F)c2)C2=CN=NC2NC2=C1C(=O)CC(C)(C)C2 (centres undefined) [US20250313563, Compound 883986]
100 to 1000 nM	100 to 1000 nM	CC[C@]1(c2cccc(N3CCCCC3)c2)C2=C(CC(C)(C)CC2=O)NC2N=NC(C)=C21 (some centres undefined) [US20250313563, Compound 884115]
100 to 1000 nM	1000 to 5000 nM	CC[C@]1(c2cccc(-c3ccnc(OC(F)(F)F)c3)c2)C2=CN=NC2NC2=C1C(=O)CC(C)(C)C2 (some centres undefined) [US20250313563, Compound 943988]
< 100 nM	< 100 nM	CC[C@@]1(c2cccc(NS(C)(=O)=O)c2)C2=CN=NC2NC2=C1C(=O)CC(C)(C)C2 (some centres undefined) [US20250313563, Compound 927348]
< 100 nM	< 100 nM	CCC1(c2cccc(C3CCCC3)c2)C2=CN=NC2NC2=C1C(=O)CC(C)(C)C2 (centres undefined) [US20250313563, Compound 949082]
1000 to 5000 nM	> 5000 nM	CC[C@]1(c2cccc(-c3cn(C)nc3C)c2)C2=CN=NC2NC2=C1C(=O)CC(C)(C)C2 (some centres undefined) [US20250313563, Compound 945545]
100 to 1000 nM	1000 to 5000 nM	CC[C@@]1(c2cccc(-c3cc[n+](O)cc3[S@@+](C)[O-])c2)C2=CN=NC2NC2=C1C(=O)CC(C)(C)C2 (some centres undefined) [US20250313563, Compound 947571]
